From PubChem BioAssay (NCI)
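Five compound concentrations were applied to cells in 96-well plates for 48 hours; endpoints were derived by simple linear interpolation of the resulting dose-response curve. At the GI50, growth is halved. TGI marks complete inhibition of growth.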

Experiments:
Experiment in all cases: NCI anticancer screen, dose series, 48 h
UO-31 renal = test system: UO-31 renal
OVCAR-5 ovarian = test system: OVCAR-5 ovarian
HT29 colon = test system: HT29 colon
SNB-19 CNS = test system: SNB-19 CNS
SF-295 CNS = test system: SF-295 CNS
OVCAR-3 ovarian = test system: OVCAR-3 ovarian
HOP-92 NSCLC = test system: HOP-92 NSCLC
NCI-H522 lung = test system: NCI-H522 lung
UACC-257 melanoma = test system: UACC-257 melanoma
SW-620 colon = test system: SW-620 colon
NCI-H460 lung = test system: NCI-H460 lung
HCT-116 colon = test system: HCT-116 colon
SK-MEL-28 melanoma = test system: SK-MEL-28 melanoma
TK-10 renal = test system: TK-10 renal
RPMI-8226 leukemia = test system: RPMI-8226 leukemia
NCI-H226 lung = test system: NCI-H226 lung
A549 NSCLC = test system: A549 NSCLC
SR leukemia = test system: SR leukemia
SK-OV-3 ovarian = test system: SK-OV-3 ovarian
PC-3 prostate = test system: PC-3 prostate
KM12 colon = test system: KM12 colon
SK-MEL-5 melanoma = test system: SK-MEL-5 melanoma
HS 578T breast = test system: HS 578T breast
SF-539 CNS = test system: SF-539 CNS
MDA-MB-435 = test system: MDA-MB-435
CAKI-1 renal = test system: CAKI-1 renal
CCRF-CEM leukemia = test system: CCRF-CEM leukemia
HL-60(TB) leukemia = test system: HL-60(TB) leukemia
UACC-62 melanoma = test system: UACC-62 melanoma
IGROV1 ovarian = test system: IGROV1 ovarian
RXF 393 renal = test system: RXF 393 renal
U251 CNS = test system: U251 CNS
OVCAR-4 ovarian = test system: OVCAR-4 ovarian
MALME-3M melanoma = test system: MALME-3M melanoma
MOLT-4 leukemia = test system: MOLT-4 leukemia
HOP-62 NSCLC = test system: HOP-62 NSCLC
MDA-MB-231 breast = test system: MDA-MB-231 breast
ACHN renal = test system: ACHN renal
786-0 renal = test system: 786-0 renal
COLO 205 colon = test system: COLO 205 colon
DU-145 prostate = test system: DU-145 prostate
SK-MEL-2 melanoma = test system: SK-MEL-2 melanoma
SN12C renal = test system: SN12C renal
A498 renal = test system: A498 renal
OVCAR-8 ovarian = test system: OVCAR-8 ovarian
SNB-75 CNS = test system: SNB-75 CNS
BT-549 breast = test system: BT-549 breast
NCI-H23 lung = test system: NCI-H23 lung
M14 melanoma = test system: M14 melanoma
HCC-2998 colon = test system: HCC-2998 colon

## CC1(C)C=CC[C@]2(C)[C@H]3CC[C@@H]4[C@H]5[C@H](C(=O)/C=C/c6cccnc6)CC[C@]5(CO)CC[C@@]4(C)[C@]3(C)CC[C@@H]12
UO-31 renal
  GI50: 1.21 µM
  TGI: 2.45 µM
OVCAR-5 ovarian
  GI50: 1.32 µM
  TGI: 2.83 µM
HT29 colon
  GI50: 1.23 µM
  TGI: 2.68 µM
SNB-19 CNS
  GI50: 1.49 µM
  TGI: 2.84 µM
SF-295 CNS
  GI50: 1.15 µM
  TGI: 2.42 µM
OVCAR-3 ovarian
  GI50: 1.37 µM
  TGI: 2.71 µM
HOP-92 NSCLC
  GI50: 0.66 µM
  TGI: 2.05 µM
NCI-H522 lung
  GI50: 1.19 µM
  TGI: 2.74 µM
UACC-257 melanoma
  GI50: 1.39 µM
  TGI: 2.91 µM
SW-620 colon
  GI50: 1 µM
  TGI: 2.31 µM
NCI-H460 lung
  GI50: 1.03 µM
  TGI: 2.41 µM
HCT-116 colon
  GI50: 1.05 µM
  TGI: 2.32 µM
SK-MEL-28 melanoma
  GI50: 1.54 µM
  TGI: 2.98 µM
TK-10 renal
  GI50: 1.81 µM
  TGI: 3.26 µM
RPMI-8226 leukemia
  GI50: 0.843 µM
  TGI: 5.35 µM
NCI-H226 lung
  GI50: 1.33 µM
  TGI: 3.08 µM
A549 NSCLC
  GI50: 0.972 µM
  TGI: 2.49 µM
SR leukemia
  GI50: 0.631 µM
  TGI: 3.7 µM
SK-OV-3 ovarian
  GI50: 1.78 µM
  TGI: 3.62 µM
PC-3 prostate
  GI50: 0.505 µM
  TGI: 1.91 µM
KM12 colon
  GI50: 1.01 µM
  TGI: 2.42 µM
SK-MEL-5 melanoma
  GI50: 1.46 µM
  TGI: 2.79 µM
HS 578T breast
  GI50: 1.51 µM
  TGI: 3.89 µM
SF-539 CNS
  GI50: 1.5 µM
  TGI: 2.87 µM
MDA-MB-435
  GI50: 1.32 µM
  TGI: 2.64 µM
CAKI-1 renal
  GI50: 1.06 µM
  TGI: 2.33 µM
CCRF-CEM leukemia
  GI50: 0.56 µM
  TGI: 5.34 µM
HL-60(TB) leukemia
  GI50: 0.304 µM
  TGI: 1.89 µM
UACC-62 melanoma
  GI50: 1.23 µM
  TGI: 2.55 µM
IGROV1 ovarian
  GI50: 1.31 µM
  TGI: 2.77 µM
RXF 393 renal
  GI50: 1.12 µM
  TGI: 2.37 µM
U251 CNS
  GI50: 1.24 µM
  TGI: 2.65 µM
OVCAR-4 ovarian
  GI50: 1.47 µM
  TGI: 3.41 µM
MALME-3M melanoma
  GI50: 1.38 µM
  TGI: 2.8 µM
MOLT-4 leukemia
  GI50: 0.539 µM
  TGI: 2.94 µM
HOP-62 NSCLC
  GI50: 1.54 µM
  TGI: 3.11 µM
MDA-MB-231 breast
  GI50: 1.27 µM
  TGI: 2.67 µM
ACHN renal
  GI50: 1.14 µM
  TGI: 2.35 µM
786-0 renal
  GI50: 1.64 µM
  TGI: 3.15 µM
COLO 205 colon
  GI50: 1.69 µM
  TGI: 3.69 µM
DU-145 prostate
  GI50: 1.36 µM
  TGI: 2.69 µM
SK-MEL-2 melanoma
  GI50: 1.28 µM
  TGI: 2.76 µM
SN12C renal
  GI50: 1.07 µM
  TGI: 2.45 µM
A498 renal
  GI50: 1.37 µM
  TGI: 2.72 µM
OVCAR-8 ovarian
  GI50: 0.666 µM
  TGI: 3.22 µM

## CC[N+](CC)=c1ccc2nc3c(cc(N)c4ccccc43)oc-2c1
OVCAR-5 ovarian
  GI50: 0.24 µM
  TGI: 0.495 µM
SNB-75 CNS
  GI50: 0.61 µM
  TGI: 1.88 µM
SNB-19 CNS
  GI50: 0.318 µM
  TGI: 1.04 µM
SF-295 CNS
  GI50: 0.111 µM
  TGI: 0.288 µM
BT-549 breast
  GI50: 1.11 µM
  TGI: 2.41 µM
HOP-92 NSCLC
  GI50: 0.19 µM
  TGI: 0.497 µM
UACC-257 melanoma
  GI50: 1.56 µM
  TGI: 3.05 µM
TK-10 renal
  GI50: 0.489 µM
  TGI: 1.14 µM
RPMI-8226 leukemia
  GI50: 0.0412 µM
  TGI: 0.399 µM
SK-OV-3 ovarian
  GI50: 1.37 µM
  TGI: 2.7 µM
PC-3 prostate
  GI50: 0.567 µM
  TGI: 6.94 µM
KM12 colon
  GI50: 0.247 µM
  TGI: 0.666 µM
SK-MEL-5 melanoma
  GI50: 0.125 µM
  TGI: 0.27 µM
SF-539 CNS
  GI50: 0.174 µM
  TGI: 0.32 µM
CCRF-CEM leukemia
  GI50: 0.183 µM
HL-60(TB) leukemia
  GI50: 0.134 µM
  TGI: 0.326 µM
NCI-H23 lung
  GI50: 0.125 µM
  TGI: 0.358 µM
RXF 393 renal
  GI50: 0.173 µM
  TGI: 0.319 µM
MOLT-4 leukemia
  GI50: 0.122 µM
  TGI: 0.334 µM
M14 melanoma
  GI50: 0.216 µM
  TGI: 0.61 µM
MDA-MB-231 breast
  GI50: 0.363 µM
  TGI: 1.73 µM
ACHN renal
  GI50: 0.412 µM
  TGI: 1.72 µM
SK-MEL-2 melanoma
  GI50: 0.968 µM
  TGI: 2.25 µM
OVCAR-8 ovarian
  GI50: 1.07 µM
  TGI: 3.43 µM
HCC-2998 colon
  GI50: 0.257 µM
  TGI: 0.661 µM
